Data reported in US20260115173A1 (University of Houston System, priority 2022, published 2026).
Entries after “also recorded” stand apart in the source; their conditions may differ. Like-named read-outs stand apart in the source and are kept apart here.

Assays:
mice of both sexes = conditions: cited from earlier work
male or female rats = conditions: cited from earlier work
rats [1] = conditions: rat, in vivo; cited from earlier work
[2] = test system: female Sprague Dawley rats; assay: Operant alcohol (10%) self-administration, FR2 schedule, 60-min sessions; type: in vivo, rat; conditions: for Active lever presses, post-hoc comparison with vehicle / Estimated total alcohol intake, post-hoc comparison with vehicle / Number of head entries, comparison with vehicle / Number of reinforcers earned, post-hoc comparison with vehicle: 0.3, 1.0, 3.0 mg/kg IP vs vehicle, decrease, Tukey's test
From the text: (§1) Animals. A total of 10 female Sprague Dawley rats (Charles River, Wilmington, MA) were used for the alcohol self-administration studies. […] These same rats were used in the cFos immunohistochemistry study. Rats were initially housed 3-5 to a cage in polypropylene cages housed in circular towers (Animal Care Systems, Inc, Centennial, CO) located within a temperature- and humidity-controlled vivarium that was maintained on a 12:12 light/dark cycle (lights on at 6 AM). Rats weighed about 250-350 gm at the start of the experiment and were at least 100 days old. Food and water were available ad libitum throughout the study. To facilitate alcohol self-administration rats were exposed to alcohol in vapor chambers (La Jolla Alcohol Research, La Jolla, CA) for 6-weeks prior to operant training using a chronic intermittent alcohol exposure (i.e., alcohol vapors were on for 14-h and off for 10-h, 5 days per week).
Drugs. Alcohol (ethyl alcohol, 190 Proof, USP grade, Koptec, King of Prussia, PA) was diluted to 10% (with RO water, w/v) and made available for consumption via standard operant chambers (described below). MG (Cayman Chemical, Ann Arbor, MI) was prepared in 20% Tween 80 (Sigma Aldrich, St. Louis, MO) in 80% sterile saline (0.9% NaCl). […] Each dose of test drug was administered via intraperitoneal (IP) injection.
Operant self-administration training and testing. Training sessions (60 min) began with the illumination of the house light and, initially, two non-contingent dipper presentations (primes) for 10 sec. The dipper access light was illuminated for the entire length of the dipper presentation time. […] When the rat pressed the active lever, the house light would turn off, dipper would protrude, and the access area light and the triple cue light above both of the levers went off. […] Stable response levels under the FR2 schedule (≤20% variability over 2 consecutive days) under 3 second dipper presentation time were required for the animal to move into the testing phase. Test sessions (60 min) were conducted once a rat met stable lever pressing criteria. Each dose of test drug and vehicle was administered (IP) 30 minutes prior to the test session in a randomized order across rats with at least 4-7 days intervening between dose administrations.
Responses obtained from the test sessions included two measures of appetitive responding (numbers of active lever presses and head entries) and two measures of consummatory responding (numbers of reinforcers earned and estimated amount of alcohol consumed in g/kg). Estimates of the amount of alcohol delivered were derived by multiplying the number of reinforcers earned by the amount of alcohol (g) per delivery (0.1 mL) of the 10% solution and divided by body weight.
Statistical Analysis. The self-administration data were analyzed with ANOVAs to compare the two measures of appetitive responding (numbers of active lever presses and head entries) and the two measures of consummatory responding (numbers of reinforcers earned and estimated total alcohol intake in g/kg).
(§2) Significant main effects were followed by Tukey's multiple comparisons test. Comparisons with p-values less than 0.05 were considered significant and those less than 0.10 were considered a trend towards significance.

[3] = test system: female Sprague Dawley rats; assay: Open field test - locomotor activity; type: in vivo, rat; conditions: N=4/group; for Distance traveled over 5-min time blocks: 3 mg/kg IP 30 min before 30-min test, vs control; for Total distance traveled over entire 30-min session: 3 mg/kg IP 30 min before test
From the text: as §1
Open Field Test-Locomotor Activity. […] Drugs were administered 30 minutes before rats were placed into the open field chambers and distance traveled (cm) was tabulated in 5-min blocks across the 30-minute test.
Distance traveled over time was analyzed using a 4×6 repeated measures ANOVA with time (six 5-min blocks) as the repeating measure. Another ANOVA was conducted that included all three Drug conditions (MG, NTX, and MG+NTX).
as §2

cFos [4] = assay: Immunohistochemistry: cFos activation in brain areas; type: in vivo, rat; conditions: 3 mg/kg IP, 90 min after open field test, vs control
From the text: as §1

male Sprague Dawley rats = conditions: cited from earlier work
male rats = conditions: male Sprague Dawley rats, 10-30 mg/kg ip vs 1, 5, 10 mg/kg i.p.; cited from earlier work
mice = conditions: i.p., cited from earlier work
[5] = NTX 1 mg/kg; cited from earlier work
delta opioid receptors [6] = biological target: T1, delta opioid receptors (Homo sapiens, UniProt P41143); conditions: cited from earlier work
delta opioid receptors [7] = biological target: T1, delta opioid receptors; conditions: cited from earlier work; remark: listed apart in the source
delta opioid receptors [8] = biological target: T2, delta opioid receptors (Mus musculus, UniProt P32300); conditions: NG108-15 cells; effect blocked by naloxone; cited from earlier work
T2 construct: endogenous in cells; host or cells: NG108-15

[9] = 15-30 mg/kg; cited from earlier work
[10] = 15-30 mg/kg; cited from earlier work; remark: listed apart in the source
rats [11] = conditions: cited from earlier work
[12] = test system: female Sprague Dawley rats; conditions: 10 mg/kg (highest dose), progressive ratio schedule; cited from earlier work
cFos [13] = conditions: 2 mg/kg, i.p.; cited from earlier work

T1 sequence (P41143 whole entry): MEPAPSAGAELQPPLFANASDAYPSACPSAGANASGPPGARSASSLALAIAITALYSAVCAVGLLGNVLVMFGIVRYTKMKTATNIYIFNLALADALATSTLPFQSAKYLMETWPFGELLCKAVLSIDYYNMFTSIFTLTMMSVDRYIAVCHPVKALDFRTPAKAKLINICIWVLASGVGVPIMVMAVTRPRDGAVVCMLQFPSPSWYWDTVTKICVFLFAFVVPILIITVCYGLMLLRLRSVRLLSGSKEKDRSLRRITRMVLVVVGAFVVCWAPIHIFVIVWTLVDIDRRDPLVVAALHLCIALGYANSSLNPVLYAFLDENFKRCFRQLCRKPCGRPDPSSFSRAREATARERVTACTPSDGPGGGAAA
T2 sequence (P32300 whole entry): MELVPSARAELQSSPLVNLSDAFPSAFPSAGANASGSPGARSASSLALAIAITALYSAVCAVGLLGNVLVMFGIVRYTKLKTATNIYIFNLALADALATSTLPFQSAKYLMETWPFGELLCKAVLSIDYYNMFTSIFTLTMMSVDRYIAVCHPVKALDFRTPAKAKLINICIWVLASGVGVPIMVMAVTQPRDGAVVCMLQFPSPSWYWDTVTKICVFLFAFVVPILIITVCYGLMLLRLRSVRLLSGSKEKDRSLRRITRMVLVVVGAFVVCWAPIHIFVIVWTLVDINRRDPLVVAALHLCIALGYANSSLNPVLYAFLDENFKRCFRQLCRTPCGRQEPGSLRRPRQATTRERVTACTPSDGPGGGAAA

CC[C@@H]1CN2CC[C@@]3(O)C(=Nc4cccc(OC)c43)[C@@H]2C[C@@H]1/C(=C\OC)C(=O)OC [7-HMG, 7-hydroxymitragynine, reference compound]
Alcohol consumption (mice of both sexes; dose not given): significantly reduced alcohol consumption as did 7-HMG
Abuse liability in ICSS (male or female rats; rat, in vivo): abuse liability was not shown in ICSS
Self-administration by rats (rats [1]): readily self-administered by rats

CC[C@@H]1CN2CCc3c([nH]c4cccc(OC)c34)[C@@H]2C[C@@H]1/C(=C\OC)C(=O)OC [MG, mitragynine]
Active lever presses, post-hoc comparison with vehicle [2]: significant differences in active lever presses between vehicle and 1.0 (P<0.01) and 3.0 mg/kg (P<0.0001)
Estimated total alcohol intake, post-hoc comparison with vehicle [2]: significant differences between vehicle and 1.0 (P<0.01) and 3.0 mg/kg (P<0.001)
Number of head entries, comparison with vehicle [2]: significant differences between vehicle and 1.0 (P<0.01) and 3.0 mg/kg (P<0.01)
Number of reinforcers earned, post-hoc comparison with vehicle [2]: significant differences between vehicle compared to 1.0 (P<0.05) and 3.0 mg/kg (P<0.0001)
All alcohol self-administration measures (lever presses, head entries, reinforcers, alcohol consumed) ([2]; 0.3-3.0 mg/kg IP): All measures were significantly decreased
Alcohol self-administration overall, relative efficacy of drug conditions ([2]; 0.3-3.0 mg/kg IP, combination vs single drugs): more significant effects on all four measures of alcohol self-administration than NTX
Active lever presses, direct comparison between drug conditions ([2]; MG vs NTX vs MG+NTX at equal doses, 3x4 ANOVA, post-hoc): trend for a greater effect of MG on active lever presses at the 3 mg/kg dose
Distance traveled over 5-min time blocks [3]: tend to increase locomotor activity
Total distance traveled over entire 30-min session [3]: did not differ between groups
Number of cFos positive neurons in dorsal striatum (cFos [4]): did not differ from the control group
Alcohol consumption (mice of both sexes; 30 and 100 mg/kg, i.p.): significantly reduced alcohol consumption
Heroin self-administration (male Sprague Dawley rats; 3.0 mg/kg): decreased heroin self-administration
Responding when substituted for heroin (male Sprague Dawley rats; 0.03-3.0 mg/kg): did not maintain responding above saline levels
Locomotor activity (male rats): higher doses (10-30 mg/kg, ip) of MG but not lower doses (1, 5, 10 mg/kg, i.p.) increase locomotor activity
Spontaneous locomotor activity (mice; 5-30 mg/kg): no effect on spontaneous locomotor activity
Activity (mice; male mice, 5, 10, 15 mg/kg): significant decrease in activity
Decrease of schedule-controlled responding by MG in presence of NTX [5]: did not block MG's ability to decrease schedule-controlled responding
Binding (delta opioid receptors [6]): very low binding to delta opioid receptors
Activity at receptor (delta opioid receptors [7]): has activity at delta opioid receptors
Inhibition of forskolin-stimulated cAMP (delta opioid receptors [8]): inhibits forskolin-stimulated CAMP in a concentration manner
Place conditioning [9]: induce place conditioning
Substitution for morphine in drug discrimination tests [10]: partially substitute for morphine
Rewarding effect in ICSS (male or female rats; 3.2-56 mg/kg): did not find evidence that MG (3.2-56 mg/kg) was rewarding
Self-administration when substituted for morphine (rats [11]; broad range of doses, rats trained to self-administer (i.v.) morphine): did not support self-administration
i.v. morphine self-administration after prior exposure (rats [11]; prior exposure): decreases i.v. morphine self-administration

O=C1CC[C@@]2(O)[C@H]3Cc4ccc(O)c5c4[C@@]2(CCN3CC2CC2)[C@H]1O5 [NTX, naltrexone, reference compound]
Active lever presses, post-hoc comparison with vehicle [2]: significant differences in active lever presses between vehicle and 1.0 (P<0.05) and 3.0 mg/kg (P<0.05)
Estimated total alcohol intake, post-hoc comparison with vehicle [2]: significant differences between vehicle and 1.0 (P<0.05) and 3.0 mg/kg (P<0.05)
Number of head entries, comparison with vehicle [2]: trend towards a main effect for Dose
Number of reinforcers earned, post-hoc comparison with vehicle [2]: significant differences between vehicle compared to 1.0 (P<0.05) and 3.0 mg/kg (P<0.05)
All alcohol self-administration measures (lever presses, head entries, reinforcers, alcohol consumed) ([2]; 0.3-3.0 mg/kg IP): All measures were significantly decreased by naltrexone except for head entries that showed a trend towards significance
Distance traveled over 5-min time blocks [3]: tend to increase locomotor activity
Total distance traveled over entire 30-min session [3]: did not differ between groups
Number of cFos positive neurons in dorsal striatum (cFos [4]): did not differ from the control group
Number of cFos positive neurons in nucleus accumbens (NAC) (cFos [4]): significant difference between control and NTX (P=0.002); also recorded: increased cFos levels to a similar degree to that of MG and NTX combined
Active lever presses, reinforcers earned, head entries [12]: decreased active lever presses, reinforcers earned but not head entries
cFos expression (cFos [13]): increases cFos expression in several brain areas including the NAC
